Results on two compounds are retold here after PMC6805867, “Amphiphilic Triazine Polymer Derivatives as Antibacterial And Anti-atopic Agents in Mice Model” (Scientific Reports, 2019).

In data set [1] the test system is dorsal skin of AD-induced BALB/c mice. The experiment in a line: DNCB-induced AD model, histological observations (H&E, toluidine blue). As to conditions: versus AD mice; for decrease in both epidermal and dermal thickness: 200 μg/mL topical daily for 18 days, H&E staining; for infiltration of mast cells in the skin lesions: topical application, toluidine blue staining. The format is in vivo. How it is done:
(§1) As described in our previous article, the 7-week-old female BALB/c mice were divided into seven groups (n = 8 per group): Control (Con) group, TZP3 200 μg/mL (TZP3) group, and TZP5 200 μg/mL (TZP5) group, DNCB-sensitized only (AD) group, DNCB-sensitized + TZP3 200 μg/mL (AD + TZP3) group, DNCB-sensitized + TZP5 200 μg/mL (AD + TZP5) group, DNCB-sensitized + Dermatop (Sanofi, Korea) 0.25% (AD + Dermatop) group. Dermatop was used as a positive control treatment. For the first induction of AD in the BALB/c mice, the backs of the mice were shaved and challenged with 200 μL of 1% 2,4-dinitrochlorobenzene(DNCB) in acetone/olive oil (3:1) one time (day−4). After 4 days from the induction, 0.5% DNCB was painted onto the backs of the mice every two days (day 2, 4, 6, 8, 10, 12, 14, 16 and 18). Concentrations of 200 μg/mL TZP3 or TZP5 in 20 μL of PBS were applied to the dorsal skin once daily for 18 days.
As described in our previous article, the skin tissues of the mice were […] in 10% neutral buffered formalin (NBF) for 24 h and embedded in white paraffin. Serial paraffin‐sections with 5 µm thickness, were prepared and stained with hematoxylin-eosin (H&E) or toluidine blue. The thickness of the epidermis and dermis was measured under a microscope. The number of mast cells stained by toluidine blue in the upper dermis in a field of 0.25 mm × 0.25 mm (0.0625 mm^2) was counted under the microscope. The cells in five fields (0.3125 mm^2 in total) of the upper dermis were counted, and an estimate of the number of cells per 1 mm^2 was made for each mouse specimen.

Data set [2] relates to Multidrug-resistant Pseudomonas aeruginosa (MDRPA) (CCARM 2095). The data set is described as follows: Chequerboard assay (synergy with clinically used antibiotics). The format is cell-based. As to conditions: for FICB: [B]/MICB; for FICI (fractional inhibitory concentration index): MDRPA CCARM 2095; for [B] (MIC of triazine polymer in combination): unit not given. As to the method:
Briefly, 2-fold serial dilutions of each antibiotic and each polymer were prepared and added in a 1:1 volume ratio to the wells of a 96-well plate. An equal volume of bacterial solution (100 μL) at ∼10^6 CFU/mL was then seeded into each well. The plates were incubated in a shaking incubator at 37 °C and 200 rpm and read after 22 h. Bacterial growth was assessed visually or spectrophotometrically via OD600 readings taken by a microplate ELISA reader (Molecular Devices, Sunnyvale, CA, USA). The fractional inhibitory concentration index (FICI) for each drug combination was calculated using the following equation: FICI = FICA + FICB = [A]/MICA + [B]/MICB, where MICA and MICB are the MIC of antibiotic and triazine based monomer (TZP3 or TZP5), respectively, while [A] and [B] are the MIC of antibiotic and triazine based monomer (TZP3 or TZP5) in combination, respectively. FICI of ≤ 0.5 was interpreted as synergy, 0.5 < FICI ≤ 1.0 as additive, 1.0 < FICI ≤ 4.0 as indifferent, and a FICI > 4.0 as antagonism.

The test system of data set [3] is TGF-β, TNF-α, iNOS, COX-2 protein in dorsal tissue. The data set is described as follows: DNCB-induced AD model, western blot of inflammatory mediators. As to conditions: versus AD mice. The format is in vivo, BALB/c mice. As to the method: as §1
Frozen skins from the mice were homogenized in liquid nitrogen. For the western blot analysis, the tissues were lysed in a RIPA lysis buffer(Sigma) containing 1% protease inhibitor. The cell lysates were incubated on ice for 1 h and then the homogenates were centrifuged at 13000 rpm for 20 min at 4 °C. […] The antibody-specific proteins were visualized with enhanced chemiluminescence (ECL) detection reagent and quantified using the ImageJ software. […]

For a further data set, the system named is trypsin. The experiment in a line: Protease stability, radial diffusion assay after tryptic digestion. The conditions noted are these: trypsin 0.2 μg/mL in PBS, 37 °C (24 h, 4 h elsewhere in the source), clearance zones against E.coli and S.aureus. The format is in vitro ADME. How it is done: The protease stability of triazine based polymers (TZP3 and TZP5) was performed by the radial diffusion assay as described previously. Briefly, a bacteria suspension (2×10^6 CFU/mL in LB) was mixed with 0.7% agarose. This mixture was poured into a 10-cm petri dish, and it dispersed rapidly. […] The reaction was stopped by freezing with liquid nitrogen, after which 10 μL aliquots were placed in each circle paper, put on the agarose plates, and then incubated at 37 °C overnight. The diameters of the bacterial clearance zones surrounding the circle paper were measured for the quantitation of inhibitory activities.

Setting [4] is: in combination with chloramphenicol.
Setting [5] is: in combination with ciprofloxacin.
[6] abbreviates: combination with chloramphenicol.

On to `NCCCN(CCCN)c1nc(Cl)nc(NCCNc2nc(NCCNc3nc(N)nc(NCCC(c4ccccc4)c4ccccc4)n3)nc(N(CCCN)CCCN)n2)n1` [TZP5], for which, in data set [1], the “decrease in both epidermal and dermal thickness” value was “more than 50%”. The “infiltration of mast cells in the skin lesions” value in data set [1] is listed as “significantly suppressed”. The FICB in data set [2] (setting [4]) is listed as 0.25; in data set [2] (setting [5]), 0.25; in data set [2] (in combination with oxacillin) it was 1.0. In addition, the Interaction entry in data set [2] (setting [6]) is “synergy (FICI of ≤ 0.5 was interpreted as synergy)”; in data set [2] (combination with ciprofloxacin), “synergy (FICI of ≤ 0.5 was interpreted as synergy)”; in data set [2] (combination with oxacillin) it was “indifferent (1.0 < FICI ≤ 4.0 as indifferent)”. The “FICI (fractional inhibitory concentration index)” value in data set [2] (setting [6]) is recorded as 0.281; in data set [2] (combination with ciprofloxacin) it was 0.5; in data set [2] (combination with oxacillin), 2.0. The figures for the “[B] (MIC of triazine polymer in combination)” value in data set [2] (setting [4]), in data set [2] (setting [5]) and in data set [2] (in combination with oxacillin) were 4, 4 and 16, respectively. Moreover, the “protein expressions (TGF-β, TNF-α, iNOS, COX-2) in dorsal tissue” value in data set [3] is recorded as “significant decrease”. The “antibacterial activity after incubation with trypsin” value in the data set on trypsin was “did not lose any of their antibacterial effects”.
Consider `NCCCN(CCCN)c1nc(N)nc(NCCNc2nc(Cl)nc(N(Cc3ccccc3)Cc3ccccc3)n2)n1` [TZP3], for which the “decrease in both epidermal and dermal thickness” value in data set [1] is listed as “more than 50%”. Besides, in data set [1], the “infiltration of mast cells in the skin lesions” value was “significantly suppressed”. In addition, the values for the FICB in data set [2] (setting [4]), in data set [2] (setting [5]) and in data set [2] (in combination with oxacillin) were 0.25, 0.5 and 1.0, respectively. The Interaction entry in data set [2] (setting [6]) was “synergy (FICI of ≤ 0.5 was interpreted as synergy)”; in data set [2] (combination with ciprofloxacin), “additive (0.5 < FICI ≤ 1.0 as additive)”; in data set [2] (combination with oxacillin), “indifferent (1.0 < FICI ≤ 4.0 as indifferent)”. For the same compound, the “FICI (fractional inhibitory concentration index)” value in data set [2] (setting [6]) was 0.281; in data set [2] (combination with ciprofloxacin), 0.75; in data set [2] (combination with oxacillin), 2.0. The “[B] (MIC of triazine polymer in combination)” value in data set [2] (setting [4]) is 4; in data set [2] (setting [5]), 8; in data set [2] (in combination with oxacillin), 16. In addition, the “protein expressions (TGF-β, TNF-α, iNOS, COX-2) in dorsal tissue” value in data set [3] is “significant decrease”. In addition, in the data set on trypsin, the “antibacterial activity after incubation with trypsin” value is “did not lose any of their antibacterial effects”.
